GI50 and TGI data for nine compounds are collected here from PubChem BioAssay (NCI).

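Method: 48-hour compound exposure of cells in 96-well plates, five concentrations, linear interpolation of endpoints. GI50 is the concentration that inhibits growth by half. TGI denotes the concentration required for complete inhibition of growth.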

Among the test systems are NCI-H226 lung; MOLT-4 leukemia; HL-60(TB) leukemia; A549 NSCLC; MDA-MB-435; OVCAR-3 ovarian; CAKI-1 renal; TK-10 renal; ACHN renal; HCT-116 colon.
What all share (experiment): NCI tumour cell line growth inhibition, 48 h

Turning to `S=c1ssc(Oc2ccccc2)c1Cl`, the GI50 is 27 µM in the test on NCI-H226 lung; 0.73 µM in the test on MOLT-4 leukemia; 3.21 µM in the test on HL-60(TB) leukemia; 33.9 µM with A549 NSCLC; 14.2 µM in the test with MDA-MB-435; 7.74 µM in the test with OVCAR-3 ovarian. Besides, the GI50 was 16 µM in the test on CAKI-1 renal, 3 µM with TK-10 renal and 4.5 µM with ACHN renal. Further, the TGI in the test with NCI-H226 lung was 73.8 µM; in the test on MOLT-4 leukemia, more than 100 µM; with HL-60(TB) leukemia it was more than 100 µM; in the test with A549 NSCLC, more than 100 µM; in the test on MDA-MB-435, 27.2 µM; in the test with OVCAR-3 ovarian, 20.4 µM. Further, the TGI stood at 29.5 µM in the test on CAKI-1 renal, 9.68 µM in the test with TK-10 renal and 16.1 µM in the test on ACHN renal.
Turning to `Oc1ccccc1C=Nc1nc(SCc2ccccc2)nc2[nH]ncc12`, the GI50 in the test with NCI-H226 lung was 54.3 µM; with MOLT-4 leukemia it was 24.8 µM; with HL-60(TB) leukemia, 26.1 µM; with A549 NSCLC, 65.2 µM; in the test on MDA-MB-435, 35.8 µM; with OVCAR-3 ovarian, 64.5 µM. Besides, the GI50 is 47.6 µM with CAKI-1 renal, 23.9 µM in the test with TK-10 renal and 41.7 µM with ACHN renal. Besides, the TGI is more than 100 µM in the test on NCI-H226 lung; more than 100 µM with MOLT-4 leukemia; 95.7 µM in the test with HL-60(TB) leukemia; more than 100 µM with A549 NSCLC; more than 100 µM with MDA-MB-435; more than 100 µM with OVCAR-3 ovarian. Also, the TGI in the test with CAKI-1 renal, in the test on TK-10 renal and in the test on ACHN renal was more than 100 µM each time.
In the case of `Oc1ccccc1CNCC12CC3CC(CC(C3)C1)C2`, the GI50 is 68.5 µM in the test with NCI-H226 lung; 24.5 µM in the test on MOLT-4 leukemia; 22 µM in the test with HL-60(TB) leukemia; 18.6 µM in the test on MDA-MB-435; 57.5 µM in the test with OVCAR-3 ovarian; 22 µM with HCT-116 colon. The GI50 in the test with CAKI-1 renal is 37 µM; with TK-10 renal, 31.2 µM; in the test on ACHN renal, 39.6 µM. Also, the TGI was more than 100 µM in the test with NCI-H226 lung; 70.2 µM with MOLT-4 leukemia; 53.3 µM in the test on HL-60(TB) leukemia; 43.7 µM in the test with MDA-MB-435; more than 100 µM in the test on OVCAR-3 ovarian; more than 100 µM in the test on HCT-116 colon. Further, the TGI with CAKI-1 renal, in the test on TK-10 renal and in the test on ACHN renal was more than 100 µM throughout.
For the compound `C=C1C(=O)O[C@H]2[C@H]1CCC(/C=N/c1ncc(Br)cc1N)=C\CC[C@@]1(C)O[C@@H]21`, the GI50 in the test with NCI-H226 lung was 2.88 µM; in the test with MOLT-4 leukemia, 2.36 µM; in the test with HL-60(TB) leukemia, 0.494 µM; in the test with A549 NSCLC it was 10.9 µM; with MDA-MB-435 it was 2.29 µM; in the test with OVCAR-3 ovarian, 1.05 µM. Besides, the values for the GI50 with HCT-116 colon, in the test on TK-10 renal and in the test with ACHN renal were 1.06 µM, 1.6 µM and 1.41 µM, respectively. For the same compound, the TGI was 11.7 µM in the test with NCI-H226 lung; 9.33 µM in the test on MOLT-4 leukemia; 3.29 µM in the test on HL-60(TB) leukemia; 25.3 µM in the test on A549 NSCLC; 7.51 µM with MDA-MB-435; 2.29 µM in the test with OVCAR-3 ovarian. Also, the TGI in the test on HCT-116 colon stood at 2.46 µM; in the test on TK-10 renal, 3.19 µM; with ACHN renal it was 4.9 µM.
As to `CCC[CH2][Sn]([CH2]CCC)([CH2]CCC)[O]C(=O)c1ccc(Cl)cc1Cl`, the GI50 in the test on MOLT-4 leukemia was 0.215 µM; with HL-60(TB) leukemia it was 0.187 µM; in the test on A549 NSCLC it was 0.164 µM; with MDA-MB-435, 0.16 µM; with OVCAR-3 ovarian it was 0.13 µM; with HCT-116 colon it was 0.127 µM. Further, the figures for the GI50 in the test on CAKI-1 renal, in the test on TK-10 renal and with ACHN renal were 0.0785 µM, 0.132 µM and 0.171 µM, respectively. Moreover, the TGI is 1.71 µM in the test on MOLT-4 leukemia; 0.494 µM in the test on HL-60(TB) leukemia; 0.328 µM in the test with A549 NSCLC; 0.335 µM in the test with MDA-MB-435; 0.259 µM in the test with OVCAR-3 ovarian; 0.262 µM with HCT-116 colon. For the same compound, the figures for the TGI with CAKI-1 renal, in the test on TK-10 renal and in the test on ACHN renal were 0.255 µM, 0.267 µM and 0.34 µM, respectively.
Turning to `CC[C@@]1(OC(=O)CN)C(=O)OCc2c1cc1n(c2=O)Cc2cc3c(N)cccc3nc2-1`, the GI50 in the test on NCI-H226 lung is 0.0216 µM; in the test on MOLT-4 leukemia, less than 0.01 µM; in the test on HL-60(TB) leukemia, less than 0.01 µM; with A549 NSCLC, less than 0.0129 µM; in the test with MDA-MB-435 it was 0.0476 µM; in the test with OVCAR-3 ovarian it was 0.0749 µM. Further, the GI50 was less than 0.01 µM in the test with CAKI-1 renal, 1.31 µM in the test with TK-10 renal and less than 0.01 µM in the test with ACHN renal. Moreover, the TGI was 0.498 µM in the test on NCI-H226 lung; 27.7 µM in the test on MOLT-4 leukemia; 1.77 µM in the test on A549 NSCLC; 0.336 µM in the test on MDA-MB-435; 3.77 µM with OVCAR-3 ovarian; 0.582 µM with CAKI-1 renal. Moreover, the TGI in the test on TK-10 renal was more than 21.6 µM; with ACHN renal, 0.0287 µM.
As for `CN1C(=O)C(CC(=O)O)NC1=S` (stereo not given), the TGI with MOLT-4 leukemia, in the test with HL-60(TB) leukemia, in the test on A549 NSCLC, with MDA-MB-435, in the test on OVCAR-3 ovarian and in the test on HCT-116 colon was more than 100 µM each time. The TGI with CAKI-1 renal, with TK-10 renal and in the test on ACHN renal was more than 100 µM in each case.
As to `COc1cccc2c1C(=O)c1c(O)c3c(c(O)c1C2=O)C[C@@](O)(C(=O)CO)C[C@@H]3O[C@H]1C[C@H](N)[C@@H](O)[C@H](C)O1`, the GI50 in the test with NCI-H226 lung is 0.068 µM; with MOLT-4 leukemia, 0.0326 µM; in the test with HL-60(TB) leukemia, 0.145 µM; with A549 NSCLC, 0.05 µM; in the test on MDA-MB-435 it was 0.465 µM; in the test on OVCAR-3 ovarian it was 0.613 µM. Moreover, the GI50 is 0.112 µM with HCT-116 colon and 1.32 µM with CAKI-1 renal. The TGI is 0.222 µM in the test on NCI-H226 lung; 0.285 µM in the test with MOLT-4 leukemia; 1.01 µM with HL-60(TB) leukemia; 1.22 µM in the test with A549 NSCLC; 1.29 µM in the test with MDA-MB-435; 13.4 µM in the test on OVCAR-3 ovarian. Besides, the TGI in the test with HCT-116 colon was determined as 5.17 µM; with CAKI-1 renal, 30.7 µM; with TK-10 renal it was 10.5 µM.
For the compound `COc1ccc(/C(=N\O)c2cc(C)c(OC)c(C)c2)cc1O`, the GI50 was 11.2 µM in the test on NCI-H226 lung; 0.052 µM with MOLT-4 leukemia; 0.011 µM in the test with HL-60(TB) leukemia; 0.039 µM in the test with A549 NSCLC; less than 0.01 µM in the test on MDA-MB-435; less than 0.01 µM with OVCAR-3 ovarian. Further, the GI50 with HCT-116 colon was less than 0.01 µM; in the test on TK-10 renal it was 0.078 µM; in the test with ACHN renal it was less than 0.01 µM. Further, the TGI is more than 100 µM in the test with NCI-H226 lung; more than 100 µM with MOLT-4 leukemia; 0.0607 µM in the test with HL-60(TB) leukemia; more than 100 µM with A549 NSCLC; more than 100 µM in the test on OVCAR-3 ovarian; more than 100 µM with HCT-116 colon. For the same compound, the TGI with TK-10 renal and with ACHN renal was more than 100 µM throughout.
